Results on 2 compounds are retold here after patent publication US20030211076A1, “Compositions and methods for treatment of proliferative disorders” (priority 2003, published 2003).

The test system of experiment [1] is porcine pulmonary arterial VEC. The experiment in a line: Growth of VEGF165-stimulated VEC (cell counting). The class given is cell-based. The procedure: The effects of LO oxidized VEGF165 on cell proliferation was also assessed. VEGF165 is a potent mitogen for vascular endothelial cells (VEC). Porcine pulmonary arterial VEC (2×10^4) were plated and incubated overnight in 35 mm-dishes containing 2 ml 15% FBS/M199 medium, and then refed with 5% FBS/M199 with different treatment regimens as shown in A, B and C of FIG. 18. FIG. 18A represents a dose response of VEGF165-stimulated cell growth. Media were supplemented with VEGF165 at the indicated doses and cells were incubated for additional 3 days. Cultures were refed once during the incubation period with fresh media supplemented with VEGF165 at indicated doses. Cells were harvested by trypsinization and counted with a hemacytometer. FIG. 18B represents the LO inhibition of VEGF165-stimulated cell growth. FIG. 18C represents the effects of inactivation of LO by BAPN on VEGF165-stimulated cell growth. […] Data represent the means (±sd) of three separate experiments each assessed with triplicate dishes.

The subject of experiment [2] is growth-arrested Swiss 3T3 cells. The experiment is described as follows: FGF2-stimulated cell cycle progression, FACS analysis. The class given is cell-based. The procedure:
The activity of native and LO-oxidized FGF2 on cell cycle progression was evaluated by using fluorescence activated cell sorting (FACS) analysis (Darzynkiewicz et al.). Swiss 3T3 cells were growth-arrested by incubation in 0.3% fetal bovine serum (FBS)/Dulbecco's Modified Eagle's Medium (DMEM) for 3 days. As depicted in FIGS. 6A-6C, the prepared growth-arrested cells were treated for 20 h at 37° C. with or without FGF2, LO, BAPN or their combinations as indicated. After treatment, cells were washed, suspended by treatment with trypsin, washed again and fixed in 0.5% formaldehyde/0.1% Triton X-100/PBS for 15 minutes on ice followed by incubation of samples in 10 μg propidium iodide and 20 units RNAse per ml of PBS for 60 minutes in the dark for DNA staining. The fluorescence intensities of each sample of 10,000 cells in G1, S and G2/M phases were measured by flow cytometry at the FL2 setting of the fluorescence activated cell sorting (FACS) instrument (Becton-Dickinson Corp.). […] LO was presented at 10 nM, FGF2 at 5 ng ml^−1 and BAPN at 100 μM. Data represent the means (+sd) of three separate experiments each assessed with duplicate dishes.

The test system of a further experiment is VEC on Matrigel. The experiment in a line: Angiogenic response of Tat-stimulated VEC on Matrigel. It is filed as cell-based. The procedure:
VEC grown on Matrigel, a solid gel of basement membrane proteins, rapidly align and form capillary-like structures providing a convenient in vitro model for angiogenesis studies (Albini et al., 1995; Grant et al.). Tat has been reported to enhance this in vitro morphogenesis of VEC consistent with its angiogenic property (Albini et al., 1995).
Cells (3×10^5) were plated on Matrigel-coated dishes. After 1 h incubation, various reagents were added to each culture. […] The following represents FIG. 15 phase-contrast microscopy: A, control; B, 10 ng ml^−1 Tat; C, 10 ng ml^−1 Tat+10 nM LO; D, 10 ng ml^−1 Tat+10 nM LO that was preincubated with 100 μM BAPN for 15 min at 370; E, 100 μM BAPN, alone, and F, 10 nM LO, alone.

Experiment [3] concerns growth-arrested Swiss 3T3 cells. The experiment in a line: PDGF-AB-stimulated cell cycle progression, FACS analysis. It is filed as cell-based. The procedure:
Growth-arrested Swiss 3T3 cells were incubated for 20 h at 37° C. with or without PDGF-AB, LO, BAPN or their combinations as indicated. After incubation, FACS analysis was carried out to characterize the cell cycle progression under different conditions as described in FIG. 6. FIG. 20A represents a dose response of PDGF-AB in cell cycle progression. FIG. 20B represents the LO inhibition of PDGF-AB-stimulated cell cycle progression (the control represents cells treated with 15 ng ml^−1 PDGF-AB in the absence of added LO). FIG. 20C represents the effects of inactivation of LO by BAPN on PDGF-AB-stimulated the cell cycle progression. LO: 15 nM, PDGF-AB: 15 ng ml^−1, BAPN: 100 AM. Data represent the means (±sd) of three separate experiments each assessed with triplicate dishes.

Experiment [4] deals with ERK1 and ERK2 MAP kinases. The experiment in a line: FGF2-stimulated MAP kinase phosphorylation, Western blot. The class given is cell-based. How it is done:
Since activation of MAP kinases by FGF2 is one of the earliest mitogenic signaling events within cells (Maher), the effects of LO on FGF2-stimulated MAP kinase phosphorylation were tested by Western blot analysis using an antibody specific for phospho-extracellular signal-regulated kinases 1 and 2 (ERK1 and ERK2). The amount of total ERK1 and ERK2 MAP kinases within the same cell extracts was determined by using an antibody that recognizes both the phospho- and non-phospho-forms of ERK1 and ERK2. […] Cell extracts were prepared and equal amounts of proteins (25 μg) were analyzed by 10% SDS-PAGE. Immunoblotting was performed using antibodies specific for the active forms of ERK1 and ERK2 (A) and total ERKs (B).

Experiment [5] concerns intracellular FGF2 in NIH 3T3 6-1 cells. The experiment is described as follows: Intracellular FGF2 crosslinking by LO, Western blotting with monoclonal anti-FGF2. It is filed as cell-based, mouse. The procedure: The possibility that exposure of cells to LO alters the physical state of intracellular FGF2 was assessed by Western blotting with monoclonal anti-FGF2 of cell lysates. Subconfluent NIH 3T3 and NIH 3T3 6-1 cells were incubated for 20 h in 0.3% FBS/DMEM with or without additives as indicated below. Cells were suspended by trypsin treatment and lysed. Aliquots of lysates containing 50 μg of cell protein were analyzed by Western blotting of SDS-PAGE electrophoretograms probing with monoclonal anti-FGF2 (FIGS. 11A and 11B). Total protein was visualized by Coomassie blue staining of SDS-PAGE electrophoretograms (FIG. 11C). FIG. 11A represents FGF2 expression in NIH 3T3 (lane 1) and NIH 3T3 6-1 cells (lane 2). FIG. 11B represents forms of intracellular FGF2 in NIH 3T3 6-1 cells incubated in the absence (lane 1) or presence of 25 nM LO (lane 2) or presence of 25 nM LO which had been preincubated with 100 μM BAPN for 15 min at 37° C. (lane 3). FIG. 11C represents the total protein profiles in control and LO-treated cells with treatments in each lane corresponding to those in FIG. 11B.

For the compound `N#CCCN` [BAPN, β-Aminopropionitrile, reference compound], the “effect on LO inhibition of VEGF165-stimulated VEC proliferation” value in experiment [1] (100 μM BAPN) was “effectively blocked”. In addition, in experiment [2] (FGF2 5 ng/ml treated with 10 nM LO and 100 μM BAPN), the “response relative to that observed with FGF2 alone” value amounted to 82±6%. In addition, in the experiment on VEC on Matrigel (10 nM LO preincubated with 100 μM BAPN for 15 min), the “effect on LO-mediated inhibition of the angiogenic response” value is “not prevented”. For the same compound, the “cell cycle progression relative to the level stimulated with PDGF-AB alone” value in experiment [3] (100 μM BAPN with LO 15 nM and 0.56 nM PDGF) amounted to 100.4%. For the same compound, the “effect on LO inhibition of FGF2 activation of MAP kinases” value in experiment [4] (5 ng/ml FGF2 + 10 nM LO + 100 μM BAPN) is reported as “abolished”. For the same compound, the “state of phosphorylation of MAP kinases” value in experiment [4] (100 μM BAPN alone) is reported as “did not affect”. Also, in experiment [5] (25 nM LO preincubated with 100 μM BAPN for 15 min at 37° C.), the “effect on LO-induced FGF2 oligomer formation” value is listed as “prevented”.
lysyl oxidase [LO]: the VEGF165-dependent cell growth result in experiment [1] (VEGF165 15 ng/ml) is recorded as “inhibited VEGF165-dependent cell growth with increased doses”. For the same compound, the “maximal decrease of FGF2 stimulation of cell cycle progression” value in experiment [2] (10 nM (0.32 μg/ml) LO, 0.28 nM FGF2) was 80%. The “Tat-stimulated morphogenesis of VEC” value in the experiment on VEC on Matrigel (10 ng/ml Tat + 10 nM LO) was “effectively blocked”. In experiment [3] (15 nM (0.48 μg/ml) LO, 0.56 nM PDGF-AB), the “decrease of PDGF-AB-induced cell cycle progression” value was 73%. In addition, in experiment [4] (5 ng/ml FGF2 and 10 nM LO, 10 min), the “levels of phospho-MAP kinases” value was “reduced”. The “levels of phospho-ERK1/2” value in experiment [4] (10 nM LO without BAPN or FGF2) was “slightly increased”. Also, the “forms of intracellular FGF2” value in experiment [5] (25 nM LO, 20 h) is “induced the formation of crosslinked dimers and oligomers of FGF2 within the cells”.
